Measured values taken from patent US10781224B2, “Bis(oxymethyl)phosphinic acid and biogenic metal salts thereof as regulators of plant growth and development” (priority 2016, dated 2020).

Test system: corn (Krasnodar 385 MV variety)
Test: Corn seed treatment with BHMPA salts: germinating power
Format: in vivo
In short: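 Seeds (50 per Petri dish on two layers of filter paper) soaked 1 h in BHMPA or its Ca, Mg, Na, Co, Mn, Cu or Zn salts at 1·10^−6-1·10^−12%, with water controls. Germination energy read on day 4, germination on day 8 (wheat) or day 7 (rice, corn), as % means of four replicates. Germinating power taken as root and sprout length plus wet and dry mass per 100 seedlings.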

[1] = corn seeds, solution concentration 1 · 10^−6%, manganese salt of BHMPA
[2] = corn seeds, solution concentration 1 · 10^−7%, manganese salt of BHMPA
[3] = corn seeds, solution concentration 1 · 10^−8%, manganese salt of BHMPA
[4] = corn seeds, solution concentration 1 · 10^−9%, manganese salt of BHMPA
[5] = corn seeds, solution concentration 1 · 10^−10%, manganese salt of BHMPA
[6] = corn seeds, solution concentration 1 · 10^−11%, manganese salt of BHMPA
[7] = corn seeds, solution concentration 1 · 10^−12%, manganese salt of BHMPA
[8] = corn seeds, solution concentration 1 · 10^−6%, sodium salt of BHMPA
[9] = corn seeds, solution concentration 1 · 10^−7%, sodium salt of BHMPA
[10] = corn seeds, solution concentration 1 · 10^−8%, sodium salt of BHMPA
[11] = corn seeds, solution concentration 1 · 10^−9%, sodium salt of BHMPA
[12] = corn seeds, solution concentration 1 · 10^−10%, sodium salt of BHMPA
[13] = corn seeds, solution concentration 1 · 10^−11%, sodium salt of BHMPA
[14] = corn seeds, solution concentration 1 · 10^−12%, sodium salt of BHMPA

## O.O.O=P([O-])(CO)CO.O=P([O-])(CO)CO.[Mn+2] [Mn-salt, Manganese BHMPA Salt]
corn
  optimum concentration for treating corn seeds before sowing: 1·10^−9%
[1]
  Length, root: 4.6 cm
  Length, root, + % to control: −4%
  Length, sprout: 2.8 cm
  Length, sprout, + % to control: −18%
  Mass, dry, root: 1.47 g/100 plantlings
  Mass, dry, root, + % to control: 6%
  Mass, dry, sprout: 0.83 g/100 plantlings
  Mass, dry, sprout, + % to control: 5%
  Mass, wet, root: 9.87 g/100 plantlings
  Mass, wet, root, + % to control: 12%
  Mass, wet, sprout: 5.92 g/100 plantlings
  Mass, wet, sprout, + % to control: 0%
[2]
  Length, root: 5.0 cm
  Length, root, + % to control: 4%
  Length, sprout: 3.1 cm
  Length, sprout, + % to control: −9%
  Mass, dry, root: 1.55 g/100 plantlings
  Mass, dry, root, + % to control: 11.5%
  Mass, dry, sprout: 0.89 g/100 plantlings
  Mass, dry, sprout, + % to control: 13%
  Mass, wet, root: 10.61 g/100 plantlings
  Mass, wet, root, + % to control: 20%
  Mass, wet, sprout: 6.63 g/100 plantlings
  Mass, wet, sprout, + % to control: 12%
[3]
  Length, root: 5.4 cm
  Length, root, + % to control: 12.5%
  Length, sprout: 3.6 cm
  Length, sprout, + % to control: 6%
  Mass, dry, root: 1.69 g/100 plantlings
  Mass, dry, root, + % to control: 21.5%
  Mass, dry, sprout: 1.05 g/100 plantlings
  Mass, dry, sprout, + % to control: 33%
  Mass, wet, root: 11.92 g/100 plantlings
  Mass, wet, root, + % to control: 35%
  Mass, wet, sprout: 7.03 g/100 plantlings
  Mass, wet, sprout, + % to control: 19%
[4]
  Length, root: 5.8 cm
  Length, root, + % to control: 21%
  Length, sprout: 3.9 cm
  Length, sprout, + % to control: 15%
  Mass, dry, root: 1.82 g/100 plantlings
  Mass, dry, root, + % to control: 31%
  Mass, dry, sprout: 1.25 g/100 plantlings
  Mass, wet, root: 12.62 g/100 plantlings
  Mass, wet, root, + % to control: 43%
  Mass, wet, sprout: 7.69 g/100 plantlings
  Mass, wet, sprout, + % to control: 30%
[5]
  Length, root: 5.5 cm
  Length, root, + % to control: 14.5%
  Length, sprout: 3.7 cm
  Length, sprout, + % to control: 9%
  Mass, dry, root: 1.72 g/100 plantlings
  Mass, dry, root, + % to control: 24%
  Mass, dry, sprout: 1.17 g/100 plantlings
  Mass, dry, sprout, + % to control: 48%
  Mass, wet, root: 12.06 g/100 plantlings
  Mass, wet, root, + % to control: 36.5%
  Mass, wet, sprout: 7.29 g/100 plantlings
  Mass, wet, sprout, + % to control: 23.5%
[6]
  Length, root: 5.3 cm
  Length, root, + % to control: 10%
  Length, sprout: 3.4 cm
  Length, sprout, + % to control: 0%
  Mass, dry, root: 1.61 g/100 plantlings
  Mass, dry, root, + % to control: 16%
  Mass, dry, sprout: 0.92 g/100 plantlings
  Mass, dry, sprout, + % to control: 16%
  Mass, wet, root: 11.78 g/100 plantlings
  Mass, wet, root, + % to control: 33%
  Mass, wet, sprout: 6.91 g/100 plantlings
  Mass, wet, sprout, + % to control: 17%
[7]
  Length, root: 4.9 cm
  Length, root, + % to control: 2%
  Length, sprout: 2.9 cm
  Length, sprout, + % to control: −15%
  Mass, dry, root: 1.47 g/100 plantlings
  Mass, dry, root, + % to control: 6%
  Mass, dry, sprout: 0.79 g/100 plantlings
  Mass, dry, sprout, + % to control: 0%
  Mass, wet, root: 10.88 g/100 plantlings
  Mass, wet, root, + % to control: 23%
  Mass, wet, sprout: 6.28 g/100 plantlings
  Mass, wet, sprout, + % to control: 6%
corn, 1·10^−6%, 1·10^−7%, 1·10^−11% and 1·10^−12% solutions
  effectiveness on germinating power: ineffective
corn, 1·10^−9% solution
  Length, root, + % to control: 21%
  Length, sprout, + % to control: 15%
  Mass, dry, root, + % to control: 31%
  Mass, dry, sprout, + % to control: 58%
  Mass, wet, root, + % to control: 43%
  Mass, wet, sprout, + % to control: 30%

## O=P([O-])(CO)CO.[Na+] [Na-salt, Sodium BHMPA Salt]
corn
  optimum concentration for treating corn seeds before sowing: 1·10^−10%
[8]
  Length, root: 4.5 cm
  Length, root, + % to control: −4%
  Length, sprout: 2.4 cm
  Length, sprout, + % to control: −14%
  Mass, dry, root: 0.99 g/100 plantlings
  Mass, dry, root, + % to control: −19%
  Mass, dry, sprout: 0.69 g/100 plantlings
  Mass, dry, sprout, + % to control: −4%
  Mass, wet, root: 5.95 g/100 plantlings
  Mass, wet, root, + % to control: −12%
  Mass, wet, sprout: 4.34 g/100 plantlings
  Mass, wet, sprout, + % to control: −5%
[9]
  Length, root: 4.9 cm
  Length, root, + % to control: 4%
  Length, sprout: 2.6 cm
  Length, sprout, + % to control: −7%
  Mass, dry, root: 1.03 g/100 plantlings
  Mass, dry, root, + % to control: −15.5%
  Mass, dry, sprout: 0.77 g/100 plantlings
  Mass, dry, sprout, + % to control: 7%
  Mass, wet, root: 6.72 g/100 plantlings
  Mass, wet, root, + % to control: −1%
  Mass, wet, sprout: 4.62 g/100 plantlings
  Mass, wet, sprout, + % to control: 1%
[10]
  Length, root: 5.0 cm
  Length, root, + % to control: 6%
  Length, sprout: 2.8 cm
  Length, sprout, + % to control: 0%
  Mass, dry, root: 1.18 g/100 plantlings
  Mass, dry, root, + % to control: −3%
  Mass, dry, sprout: 0.86 g/100 plantlings
  Mass, dry, sprout, + % to control: 19%
  Mass, wet, root: 6.93 g/100 plantlings
  Mass, wet, root, + % to control: 2%
  Mass, wet, sprout: 4.74 g/100 plantlings
  Mass, wet, sprout, + % to control: 4%
[11]
  Length, root: 5.2 cm
  Length, root, + % to control: 11%
  Length, sprout: 3.0 cm
  Length, sprout, + % to control: 7%
  Mass, dry, root: 1.25 g/100 plantlings
  Mass, dry, root, + % to control: 2%
  Mass, dry, sprout: 0.69 g/100 plantlings
  Mass, dry, sprout, + % to control: 26%
  Mass, wet, root: 7.08 g/100 plantlings
  Mass, wet, root, + % to control: 4%
  Mass, wet, sprout: 4.91 g/100 plantlings
  Mass, wet, sprout, + % to control: 7%
[12]
  Length, root: 5.5 cm
  Length, root, + % to control: 17%
  Length, sprout: 3.1 cm
  Length, sprout, + % to control: 11%
  Mass, dry, root: 1.30 g/100 plantlings
  Mass, dry, root, + % to control: 6.5%
  Mass, dry, sprout: 1.12 g/100 plantlings
  Mass, wet, root: 7.19 g/100 plantlings
  Mass, wet, sprout: 5.35 g/100 plantlings
  Mass, wet, sprout, + % to control: 17%
[13]
  Length, root: 5.3 cm
  Length, root, + % to control: 13%
  Length, sprout: 2.9 cm
  Length, sprout, + % to control: 3.5%
  Mass, dry, root: 1.26 g/100 plantlings
  Mass, dry, root, + % to control: 3%
  Mass, dry, sprout: 0.92 g/100 plantlings
  Mass, dry, sprout, + % to control: 28%
  Mass, wet, root: 6.88 g/100 plantlings
  Mass, wet, root, + % to control: 1%
  Mass, wet, sprout: 4.99 g/100 plantlings
  Mass, wet, sprout, + % to control: 9%
[14]
  Length, root: 4.6 cm
  Length, root, + % to control: −2%
  Length, sprout: 2.6 cm
  Length, sprout, + % to control: −7%
  Mass, dry, root: 0.95 g/100 plantlings
  Mass, dry, root, + % to control: −22%
  Mass, dry, sprout: 0.80 g/100 plantlings
  Mass, dry, sprout, + % to control: 11%
  Mass, wet, root: 6.12 g/100 plantlings
  Mass, wet, root, + % to control: −10%
  Mass, wet, sprout: 4.37 g/100 plantlings
  Mass, wet, sprout, + % to control: −4%
corn, 1·10^−6% and 1·10^−12% solutions
  effectiveness on germinating power: ineffective
corn, 1·10^−10% solution
  Length, root, + % to control: 17%
  Length, sprout, + % to control: 11%
  Mass, dry, root, + % to control: 6.5%
  Mass, dry, sprout, + % to control: 55.5%
  Mass, wet, root, + % to control: 6%
  Mass, wet, sprout, + % to control: 17%
